Experimental data published in patent US9512176B2, “Age inhibitors” (Centre National de la Recherche Scientifique, priority 2005, dated 2016).
“Also recorded” adds a separate entry of the source. Non-standard residues stand in square brackets, D forms with d. Residues, ends and D or L forms follow the SMILES beside them. ξ: configuration not given here. Ile(3ξ) = CCC(C)[C@H](N)C(=O)O; dDap = NC[C@@H](N)C(=O)O; Dap = NC[C@H](N)C(=O)O

Assays:
[1] = test system: EA.hy 926 cell line; experiment: Growth of EA.hy 926 endothelial cells with MG scavengers and/or methylglyoxal (MTT); format: cell-based, human; details: for viability at 1000 µM: Homo sapiens, EA.hy 926, read-out: Cells + MG scavengers + Methylglyoxal (B); for Difference (B) − (A): Table 2, cells with scavenger + MG minus cells with scavenger alone; for Cells + MG scavengers (A): scavenger 1 mM, no methylglyoxal, number of cells relative to untreated control cells; for effect against suppression of cell growth by MG: scavenger + methylglyoxal; for difference between number of cells growing with compound and with MG and compound: values in brackets; for cell toxicity: text b496, compound alone
Experimental: The cells used for the test are from the EA.hy 926 cell line, which are endothelial cells obtained by the hybridization of human umbilical vein endothelial cells (HUVECs) with lung cancer cells (A549). The EA.hy 926 endothelial cells are incubated in Dulbecco's modified Eagle's Medium (DMEM) enriched with 10% fetal calf serum. The cells are incubated in 12-well plates. Each well initially contains 100,000 cells. Cell growth is achieved by incubating the cells in 2 ml of culture medium after adding or not adding the various potential inhibitors (1 mM) and/or methylglyoxal (600 μM) for 48 hours at 37° C. in a moist atmosphere with 5% CO2.
The number of cells is evaluated in the following way:
The cells are stained using the (4,5-dimethylthiazol-2-yl)-2,5-diphenyltetrazolium bromide (MTT) assay. MTT penetrates in the cell where it is converted into formazan. The quantity of formazan formed is proportional to the number of living cells.
The results are expressed as a relative percentage of the number of cells after treatment compared to the number of control cells without treatment [100*OD (treated cells)/OD (control cells)]. Detection is carried out by UV/visible spectrophotometry at 570 nm.
Principle: MTT (yellow) penetrates the cell and is converted into an insoluble blue compound, formazan, by cleavage of its tetrazolium rings by the mitochondrial dehydrogenase enzymes of living cells. Formazan is solubilized by isopropanol. The number of cells is proportional to the quantity of formazan formed and its absorbance.

[2] = test system: ribonuclease A; experiment: Enzymatic activity of ribonuclease A after treatment with methylglyoxal and inhibitors (methylene blue RNA staining); format: biochemical; details: ribonuclease A treated with methylglyoxal (MG) + inhibitor in equimolar quantity, 37° C.; control RNase 100, RNase + methylglyoxal 10.11%
Experimental: (§1) Ribonuclease A and lysozyme (10 mg/ml) are incubated in the presence of methylglyoxal (10 mM) or in the presence of methylglyoxal and one of the inhibitors according to the present invention in an equimolar quantity at 37° C. After 48 hours of incubation, the proteins are analyzed by polyacrylamide gel electrophoresis (8%-16% SDS PAGE gel).
The enzymatic activity of ribonuclease A after treatment with methylglyoxal and the various inhibitors according to the present invention is measured using the methylene blue RNA staining technique of Greiner-Stöffele et al. (Anal. Biochem. (1996) 240, 24).

[3] = test system: lysozyme; experiment: SDS PAGE electrophoresis of lysozyme incubated with methylglyoxal and inhibitor; format: biochemical; details: lysozyme 10 mg/ml, methylglyoxal 10 mM, inhibitor equimolar, 37° C., 48 hours
Experimental: as §1

[4] = test system: ribonuclease A; experiment: SDS PAGE electrophoresis of ribonuclease A incubated with methylglyoxal and inhibitor; format: biochemical; details: ribonuclease A 10 mg/ml, methylglyoxal 10 mM, inhibitor equimolar, 37° C., 48 hours
Experimental: as §1
The AGE inhibitors according to the present invention, namely L-DAPA-L-Leu (example 1) and L-DAPA-L-Ile (example 18), or AG (10 mM) are incubated with MG and ribonuclease A for […] at 37° C.

[5] = test system: RNase A; experiment: RNase A modifications induced by methylglyoxal (HPLC); format: biochemical; details: RNase A 0.08 mM, methylglyoxal 32 mM, compound 38 mM, 21 hours at 37° C.
Experimental: FIGS. 11 to 13 present the results obtained by HPLC for three compounds according to the present invention, L-DAPA-L-Ile (example 18), L-DAPA-L-Val (example 23) and L-DAPA-L-Leu (example 1), on RNase A modifications induced by methylglyoxal. HPLC conditions are as follows: C-18, Symmetry 300 (4.6×250 mm) column, injection volume 100 μl of reaction mixture diluted to 1/10; flow 1 ml/min; temperature 40° C.; solvent A: H2O+0.1% TFA; solvent B: 60/40 CH3CN/H2O+0.1% TFA; linear gradient of 20% B to 80% B in 20 minutes; detection: UV at 215 nm: PDA (chromatograms extracted at 215 nm).

[6] = test system: glyoxalase I; experiment: Glyoxalase I treated with methylglyoxal: non-denaturing electrophoresis and enzymatic activity; format: biochemical
Experimental: MG reacts with a protein's lysine and arginine residues, thus altering the charges on the modified polypeptide. […] The exposure of glyoxalase I to MG (10 mM) for 24 hours increases the mobility of the protein toward the positive electrode, a change that is consistent with the loss of positive charges from the ε-amino and guanidino groups and the gain of negative charges.
The incubation of glyoxalase I, a key protein in the α-oxoaldehyde detoxification system, in the presence of methylglyoxal, modifies the protein. This modification causes a change in charge and a 50% decrease in enzymatic activity compared to the control.

[7] = scavenger 1 mM + methylglyoxal 600 μM, 48 hours, relative to untreated control cells, MG alone 24, mean of 3 experiments
[8] = 48 hours, mean of 3 experiments

| Structure (SMILES) | Cells + MG scavengers (A) [1, 8] [%] | RNase A modifications induced by methylglyoxal [5] | gain of negative charge of glyoxalase I exposed to MG ([6]; MG 10 mM, 24 hours, non-denaturing electrophoresis) | viability at 1000 µM [1, 7] [%] | Difference (B) − (A) [1] | effect against suppression of cell growth by MG [1] | Cells + MG scavengers + Methylglyoxal (B) [1, 7] [%] | toxicity with respect to EA cells ([1]; compound alone, 1 mM) | difference between number of cells growing with compound and with MG and compound [1] | Enzymatic activity (%) [2] [%] | protection from structural modifications (dimer form) caused by methylglyoxal [3] | cell toxicity [1] [%] | protection from structural modifications (dimer form) caused by methylglyoxal [4] | cell survival when incubated with MG [1] [%] | inhibition of glyoxalase I enzymatic activity and structural modification by methylglyoxal ([6]; MG alone: 50% decrease in enzymatic activity) |
| --- | --- | --- | --- | --- | --- | --- | --- | --- | --- | --- | --- | --- | --- | --- | --- |
| NCCC(=O)N[C@@H](Cc1cnc[nH]1)C(=O)O [Carnosine, β-alanyl-L-histidine, reference compound] | 99 | – | – | 50 | −49 | less effective | – | – | – | – | – | – | – | – | – |
| CN(C)C(=N)N=C(N)N [Metformin, reference compound] | 91 | – | – | 45 | −46 | less effective; also recorded: weak scavenger | – | extremely low toxicity | – | – | – | – | – | – | – |
| CC(C)C[C@H](NC(=O)[C@@H](N)CN)C(=O)O [example 3, L-DAPA-L-Leu.2TFA] (H-[Dap]-Leu-OH) | – | – | – | – | – | – | – | – | −18 | – | – | – | – | – | – |
| N[C@H](C(=O)NCC(=O)O)[C@@H](N)C(=O)NCC(=O)O [example 28, (2S,3R)-DASA-1-Gly-4-Gly.2HCl] | 61 | – | – | 54 | −7 | – | – | – | – | – | – | – | – | – | – |
| CC(C)[C@H](NC(=O)[C@@H](N)[C@H](N)C(=O)N[C@H](C(=O)O)C(C)C)C(=O)O [example 29, (2S,3S)-DASA-1-L-Val-4-L-Val.2HCl] | 85 | – | – | 70 | −15 | – | – | – | −15 | 75.09 | provides protection | – | provides protection | – | – |

More lines, main results first:

| Cells + MG scavengers (A) [1, 8] [%] | RNase A modifications induced by methylglyoxal [5] | gain of negative charge of glyoxalase I exposed to MG ([6]; MG 10 mM, 24 hours, non-denaturing electrophoresis) | Structure (SMILES) | viability at 1000 µM [1, 7] [%] | Difference (B) − (A) [1] | effect against suppression of cell growth by MG [1] | Cells + MG scavengers + Methylglyoxal (B) [1, 7] [%] | toxicity with respect to EA cells ([1]; compound alone, 1 mM) | difference between number of cells growing with compound and with MG and compound [1] | Enzymatic activity (%) [2] [%] | protection from structural modifications (dimer form) caused by methylglyoxal [3] | cell toxicity [1] [%] | protection from structural modifications (dimer form) caused by methylglyoxal [4] | cell survival when incubated with MG [1] [%] | inhibition of glyoxalase I enzymatic activity and structural modification by methylglyoxal ([6]; MG alone: 50% decrease in enzymatic activity) |
| --- | --- | --- | --- | --- | --- | --- | --- | --- | --- | --- | --- | --- | --- | --- | --- |
| 81 | – | – | NCCCC[C@H](N)C(=O)O [L-Lys, reference compound] | – | −38 | – | 43 | – | – | – | – | – | – | – | – |
| 77 | – | – | C[C@@H](NC(=O)[C@H](N)CN)C(=O)O [example 8, D-DAPA-D-Ala.2HCl] (H-[dDap]-[dA]-OH) | 71 | −6 | – | – | – | +1 | 87.37 | provides protection | 39 | provides protection | – | – |
| 77 | – | – | CC(C)C[C@H](NC(=O)[C@@H](N)[C@H](C)N)C(=O)O [example 12, (2S,3S)-DABA-L-Leu.2HCl] | 73 | −4 | – | – | – | −4 | 80.97 | provides protection | – | provides protection | – | – |
| 71 | – | – | CC(C)C[C@H](NC(=S)[C@@H](N)CN)C(=O)O [example 16, L-DAPA-L-(S)-Leu.2HCl] | 74 | +3 | – | – | – | – | 75.69 | – | – | – | – | – |
| 54 | – | – | NC[C@H](N)C(=O)NCC(=O)O [example 17, L-DAPA-Gly.2HCl] (H-[Dap]-Gly-OH) | 50 | −4 | – | – | – | +3 | 85.61 | provides protection | 43 | provides protection | – | – |
| 86 | prevent the modifications to RNase A | inhibits the gain of negative charge | CCC(C)[C@H](NC(=O)[C@@H](N)CN)C(=O)O (stereo partly drawn) [example 18, L-DAPA-L-Ile.2HCl] (H-[Dap]-[Ile(3ξ)]-OH) | 79 | −7 | same trend | – | – | −9 | 90.77 | provides protection | – | provides protection | 79 | prevents the inhibition exerted by methylglyoxal and protects against structural modifications |
| 77 | – | – | NC[C@H](N)C(=O)N[C@@H](Cc1ccccc1)C(=O)O [example 21, L-DAPA-L-Phe.2HCl] (H-[Dap]-Phe-OH) | 71 | −6 | – | – | – | −6 | 70.20 | – | – | – | – | – |
